Test system: HCT-116
Experiment: Cellular activity against human colon tumor cell line, HCT116
Assay type: functional

Row | Compound | GI50
1 | C#CCCCn1c(Cc2cc(OC)c(OC)c(OC)c2Cl)nc2c(N)nc(F)nc21 | 3.9 µM
2 | C#CCCCn1c(Cc2cc(OC)ccc2OC)nc2c(N)nc(F)nc21 | 3.3 µM
3 | CCCCn1c(Cc2cc(OC)ccc2OC)nc2c(N)nc(F)nc21 | 3.4 µM

Source: ChEMBL document CHEMBL1146822, “Adenine derived inhibitors of the molecular chaperone HSP90-SAR explained through multiple X-ray structures” (Bioorg Med Chem Lett, 2004)
